Measurements: ChEMBL document CHEMBL1681708, “The synthesis and structure-activity relationship of pyridazinones as glucan synthase inhibitors” (Bioorg Med Chem Lett, 2011)
≈ marks a conversion by molar mass, not a printed value.

Columns and labels:
Beta-1,3-glucan synthase = target: T1, Beta-1,3-glucan synthase (Candida albicans, UniProt O13383); test: Inhibition of Candida albicans BWP17 1,3-beta-D-glucan synthase
T1 sequence (O13383 whole entry): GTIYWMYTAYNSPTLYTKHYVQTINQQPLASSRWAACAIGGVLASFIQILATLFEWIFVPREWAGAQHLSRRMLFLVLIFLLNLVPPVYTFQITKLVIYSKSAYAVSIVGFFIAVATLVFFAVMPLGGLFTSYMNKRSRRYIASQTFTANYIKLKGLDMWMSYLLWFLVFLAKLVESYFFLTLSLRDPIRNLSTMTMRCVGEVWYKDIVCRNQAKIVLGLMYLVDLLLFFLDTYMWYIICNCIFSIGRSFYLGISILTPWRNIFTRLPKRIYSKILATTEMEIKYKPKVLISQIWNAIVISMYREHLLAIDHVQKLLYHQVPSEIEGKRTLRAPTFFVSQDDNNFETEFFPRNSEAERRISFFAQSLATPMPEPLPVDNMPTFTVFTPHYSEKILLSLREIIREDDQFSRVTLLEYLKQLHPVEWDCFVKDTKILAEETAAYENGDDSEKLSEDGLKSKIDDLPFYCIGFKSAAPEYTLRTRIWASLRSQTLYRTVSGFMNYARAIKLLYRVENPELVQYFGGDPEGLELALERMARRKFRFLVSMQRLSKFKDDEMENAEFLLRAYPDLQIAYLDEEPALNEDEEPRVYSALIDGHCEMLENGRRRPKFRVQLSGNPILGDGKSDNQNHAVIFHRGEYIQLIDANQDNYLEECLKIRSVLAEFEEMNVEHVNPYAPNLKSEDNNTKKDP

Candida albicans = test: Antifungal activity against Candida albicans C693 by broth dilution method; type: functional; conditions: for MIC: read-out: MIC100
Nakaseomyces glabratus = test: Antifungal activity against Candida glabrata C624 by broth dilution method; type: functional; conditions: read-out: MIC100
Hepatocyte [1] = test: Clearance in human hepatocytes measured per molar mass of cells; type: ADME, cell-based, Liver
Candida glabrata [2] = test: Antifungal activity against Candida glabrata C624 infected in immunocompromized mouse assessed as log10 reduction in CFU in kidney at 30 mg/kg, poqd for seven days (reference value: 4.28 log10 CFU)
[3] = AUC (0 to 8 hrs) in dog at 2 mg/kg, po administered with methylcellulose and HPBCD; type: ADME, organism-based, Canis lupus familiaris; parameters: time < 8 hr, dose 2 mg/kg, route oral; conditions: in vivo
hERG (KCNH2) = hERG (KCNH2) (Homo sapiens, UniProt Q12809); test: Inhibition of human ERG at 1 uM by patch clamp assay
Cytochrome P450 3A4 = Cytochrome P450 3A4 (Homo sapiens, UniProt P08684); test: Inhibition of CYP3A4 at 30 uM; type: ADME
Candida glabrata [4] = test: Antifungal activity against Candida glabrata C624 infected in immunocompromized mouse assessed as log10 reduction in CFU in kidney at 10 mg/kg, poqd for seven days (reference value: 4.28 log10 CFU)
[5] = Clearance in dog hepatocytes measured per molar mass of cells; type: ADME, cell-based, Canis lupus familiaris, Liver, Hepatocyte
Cytochrome P450 2D6 = Cytochrome P450 2D6 (Homo sapiens, UniProt P10635); test: Inhibition of CYP2D6 at 30 uM; type: ADME
Aspergillus fumigatus = test: Antifungal activity against Aspergillus fumigatus ND158 by broth dilution method; type: functional; conditions: read-out: MEC
Hepatocyte [6] = test: Clearance in rat hepatocytes measured per molar mass of cells; type: ADME, cell-based, Liver
Cytochrome P450 2C9 = Cytochrome P450 2C9 (Homo sapiens, UniProt P11712); test: Inhibition of CYP2C9 at 30 uM; type: ADME
[7] = AUC (0 to 6 hrs) in rat at 10 mg/kg, po administered with methylcellulose; type: ADME, organism-based; parameters: time < 6 hr, dose 10 mg/kg, route oral; conditions: in vivo

Sequence of Cytochrome P450 2C9 (P11712 whole entry): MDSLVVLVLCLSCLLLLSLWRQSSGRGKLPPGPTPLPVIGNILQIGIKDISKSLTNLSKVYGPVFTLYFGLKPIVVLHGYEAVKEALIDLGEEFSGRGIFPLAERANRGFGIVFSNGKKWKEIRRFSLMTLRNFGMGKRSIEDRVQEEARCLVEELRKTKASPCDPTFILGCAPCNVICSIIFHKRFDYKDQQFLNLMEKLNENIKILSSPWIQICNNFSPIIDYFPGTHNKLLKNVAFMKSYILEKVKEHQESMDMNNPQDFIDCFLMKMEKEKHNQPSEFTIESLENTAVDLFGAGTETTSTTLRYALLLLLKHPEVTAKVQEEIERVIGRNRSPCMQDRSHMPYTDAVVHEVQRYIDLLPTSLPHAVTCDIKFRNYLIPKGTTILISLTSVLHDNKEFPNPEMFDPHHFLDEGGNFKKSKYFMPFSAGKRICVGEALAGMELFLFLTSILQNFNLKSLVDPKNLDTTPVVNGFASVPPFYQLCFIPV
Sequence of hERG (KCNH2) (Q12809 whole entry): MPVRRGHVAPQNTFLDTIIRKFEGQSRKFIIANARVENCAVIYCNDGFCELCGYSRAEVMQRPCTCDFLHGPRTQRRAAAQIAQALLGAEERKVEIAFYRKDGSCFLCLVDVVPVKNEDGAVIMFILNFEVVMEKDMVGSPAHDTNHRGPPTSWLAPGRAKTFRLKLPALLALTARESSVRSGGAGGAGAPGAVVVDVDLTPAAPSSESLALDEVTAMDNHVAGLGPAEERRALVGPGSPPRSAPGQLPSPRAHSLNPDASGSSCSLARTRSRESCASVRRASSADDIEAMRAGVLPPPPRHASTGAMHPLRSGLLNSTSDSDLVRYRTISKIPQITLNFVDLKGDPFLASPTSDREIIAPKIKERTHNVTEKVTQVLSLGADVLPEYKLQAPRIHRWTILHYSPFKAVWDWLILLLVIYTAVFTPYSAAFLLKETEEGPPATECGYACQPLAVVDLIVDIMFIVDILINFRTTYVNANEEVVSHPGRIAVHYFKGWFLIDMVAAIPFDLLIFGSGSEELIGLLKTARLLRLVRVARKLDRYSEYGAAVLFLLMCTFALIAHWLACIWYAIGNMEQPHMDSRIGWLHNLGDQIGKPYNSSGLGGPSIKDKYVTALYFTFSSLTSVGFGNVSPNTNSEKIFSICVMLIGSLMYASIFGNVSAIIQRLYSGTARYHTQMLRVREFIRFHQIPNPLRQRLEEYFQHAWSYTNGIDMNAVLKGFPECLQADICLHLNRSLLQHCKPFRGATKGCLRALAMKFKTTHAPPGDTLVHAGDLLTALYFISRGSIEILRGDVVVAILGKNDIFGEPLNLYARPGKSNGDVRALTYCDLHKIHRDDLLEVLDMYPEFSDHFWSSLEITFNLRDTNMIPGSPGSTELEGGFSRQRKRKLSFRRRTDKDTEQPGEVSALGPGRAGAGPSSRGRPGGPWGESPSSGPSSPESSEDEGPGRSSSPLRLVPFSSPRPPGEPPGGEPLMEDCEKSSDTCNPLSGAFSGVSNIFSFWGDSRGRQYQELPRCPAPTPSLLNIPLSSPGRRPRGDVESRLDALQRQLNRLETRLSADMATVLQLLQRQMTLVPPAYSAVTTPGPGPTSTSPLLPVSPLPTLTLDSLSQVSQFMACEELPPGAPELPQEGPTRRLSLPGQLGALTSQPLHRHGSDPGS
Sequence of Cytochrome P450 3A4 (P08684 whole entry): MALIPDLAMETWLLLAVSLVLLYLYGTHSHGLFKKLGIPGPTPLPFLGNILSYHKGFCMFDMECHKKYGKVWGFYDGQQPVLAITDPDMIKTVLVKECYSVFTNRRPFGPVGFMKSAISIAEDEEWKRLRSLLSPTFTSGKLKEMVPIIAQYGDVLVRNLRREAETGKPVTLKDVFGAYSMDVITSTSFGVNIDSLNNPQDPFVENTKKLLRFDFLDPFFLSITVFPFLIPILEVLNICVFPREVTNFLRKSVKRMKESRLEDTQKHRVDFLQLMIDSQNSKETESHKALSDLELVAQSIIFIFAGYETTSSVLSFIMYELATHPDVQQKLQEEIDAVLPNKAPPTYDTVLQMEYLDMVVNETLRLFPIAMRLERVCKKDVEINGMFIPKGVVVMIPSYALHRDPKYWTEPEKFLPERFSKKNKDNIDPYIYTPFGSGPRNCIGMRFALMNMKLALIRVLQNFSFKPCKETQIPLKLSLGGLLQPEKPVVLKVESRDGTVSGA
Sequence of Cytochrome P450 2D6 (P10635 whole entry): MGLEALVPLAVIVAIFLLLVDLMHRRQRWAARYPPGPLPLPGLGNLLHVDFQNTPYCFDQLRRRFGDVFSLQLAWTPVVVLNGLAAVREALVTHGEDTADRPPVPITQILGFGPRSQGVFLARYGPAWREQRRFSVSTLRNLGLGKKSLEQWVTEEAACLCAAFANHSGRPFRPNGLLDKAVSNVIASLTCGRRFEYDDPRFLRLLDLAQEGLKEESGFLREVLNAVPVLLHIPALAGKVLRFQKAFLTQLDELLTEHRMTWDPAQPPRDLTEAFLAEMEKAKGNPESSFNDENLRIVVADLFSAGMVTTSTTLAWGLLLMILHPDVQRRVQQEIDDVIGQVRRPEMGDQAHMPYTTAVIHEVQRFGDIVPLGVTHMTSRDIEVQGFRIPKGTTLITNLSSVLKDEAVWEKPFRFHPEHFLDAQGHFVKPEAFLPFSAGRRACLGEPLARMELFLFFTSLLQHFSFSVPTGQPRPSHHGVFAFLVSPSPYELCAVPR

Compound	IC50 (Beta-1,3-glucan synthase) [µM]	MIC (Candida albicans) [mg/L]	MIC (Nakaseomyces glabratus) [mg/L]	also measured
O=c1c(OC2CCCC2)c(N2CCN(S(=O)(=O)Cc3ccccn3)CC2)cnn1-c1ccccc1	1.19	8.4 (≈ 16.9 µM)	0.06 (≈ 0.121 µM)	
O=c1c(C2CCCCC2)c(N2CCN(S(=O)(=O)Cc3ccccc3)CC2)cnn1-c1ccccc1	4.47	> 20	> 20	
CC(C)S(=O)(=O)N1CCN(c2cnn(-c3cc(F)cc(F)c3)c(=O)c2OC2CCC(F)C2)CC1 (racemic)	1.24	6.3 (≈ 12.6 µM)	0.1 (≈ 0.2 µM)	CL (Hepatocyte [1]): 1 µL/min; log10cfu (Candida glabrata [2]): 1.3; AUC(0-t) at 8 h [3]: 3.5 µg·h/mL; inhibition at 1 µM (hERG (KCNH2)): 22%; inhibition (INH) (Cytochrome P450 3A4): Not Active; log10cfu (Candida glabrata [4]): 4.16; CL [5]: 1.7 µL/min; inhibition (INH) (Cytochrome P450 2D6): Not Active; minimal effective concentration (Aspergillus fumigatus): 1.6 µg/mL; CL (Hepatocyte [6]): 2.4 µL/min; inhibition (INH) (Cytochrome P450 2C9): Not Active; AUC(0-t) at 6 h [7]: 2.1 µg·h/mL
CC(C)S(=O)(=O)N1CCN(c2cnn(-c3cc(F)cc(F)c3)c(=O)c2OC2CCC(F)(F)C2)CC1 (stereo not drawn)	1.16	12.5 (≈ 24.1 µM)	0.05 (≈ 0.0964 µM)	minimal effective concentration (Aspergillus fumigatus): 3.1 µg/mL; AUC(0-t) at 6 h [7]: 0.44 µg·h/mL
C[C@H]1CN(c2cnn(-c3ccccc3)c(=O)c2OC2CCCCC2)CCN1S(=O)(=O)Cc1ccccc1	8.23		0.39 (≈ 0.746 µM)	MIC50 (Candida albicans): 2 mg/L (≈ 3.83 µM)
CC(C)S(=O)(=O)N1CCN(c2cnn(-c3cccc(F)c3)c(=O)c2OC2CCCC2)CC1	2.15	6.3 (≈ 13.6 µM)	0.1 (≈ 0.215 µM)	minimal effective concentration (Aspergillus fumigatus): 1.6 µg/mL; AUC(0-t) at 6 h [7]: 0.67 µg·h/mL
O=c1c(OC2CCCC2)c(N2CCN(S(=O)(=O)c3ccccc3)CC2)cnn1-c1ccccc1	> 20.8		0.15 (≈ 0.312 µM)	MIC50 (Candida albicans): 0.78 mg/L (≈ 1.62 µM)
O=c1c(OC2CCCC2)c(N2CCN(S(=O)(=O)c3ccccn3)CC2)cnn1-c1ccccc1	2.7	5 (≈ 10.4 µM)	0.63 (≈ 1.31 µM)	
O=c1c(OC2CCCCC2)c(N2CC3CC2CN3S(=O)(=O)Cc2ccccc2)cnn1-c1ccccc1 (stereo not drawn)	> 19.2	> 50	> 50	
CC(C)S(=O)(=O)N1CCN(c2cnn(-c3cccc(F)c3)c(=O)c2OC2CCC(F)(F)C2)CC1 (stereo not drawn)	2.2	6.3 (≈ 12.6 µM)	0.78 (≈ 1.56 µM)	minimal effective concentration (Aspergillus fumigatus): 3.1 µg/mL; AUC(0-t) at 6 h [7]: 0.47 µg·h/mL
CS(=O)(=O)N1CCN(c2cnn(-c3ccccc3)c(=O)c2OC2CCCC2)CC1	5.26	> 20	0.63 (≈ 1.51 µM)	
CC(C)S(=O)(=O)N1CCN(c2cnn(C3CCCCC3)c(=O)c2OC2CCCC2)CC1	19.4	> 50	0.78 (≈ 1.72 µM)	
CCCCCCCc1c(N2CCN(S(=O)(=O)Cc3ccccc3)CC2)cnn(-c2ccccc2)c1=O	2.95	> 50	0.78 (≈ 1.53 µM)	
O=c1c(OC2CCCC2)c(N2CCN(S(=O)(=O)Cc3cccnc3)CC2)cnn1-c1ccccc1	0.404	8.4 (≈ 16.9 µM)	0.13 (≈ 0.262 µM)	
CC(C)S(=O)(=O)N1CCN(c2cnn(-c3cccc(N)c3)c(=O)c2OC2CCCC2)CC1	4.12	> 50	25 (≈ 54.2 µM)	
CC(C)S(=O)(=O)N1CCN(c2cnn(-c3cc(Cl)cc(Cl)c3)c(=O)c2OC2CCCC2)CC1	0.504	3.1 (≈ 6.01 µM)	0.2 (≈ 0.388 µM)	
CC(C)S(=O)(=O)N1CCN(c2cnn(-c3cc(F)cc(F)c3)c(=O)c2OC2CCCC2)CC1	1.28	6.3 (≈ 13.1 µM)	0.4 (≈ 0.829 µM)	
C[C@@H]1CN(c2cnn(-c3ccccc3)c(=O)c2OC2CCCCC2)CCN1S(=O)(=O)Cc1ccccc1	5.36		0.78 (≈ 1.49 µM)	MIC50 (Candida albicans): 19 mg/L (≈ 36.4 µM)

Compound	IC50 (Beta-1,3-glucan synthase) [µM]	MIC (Candida albicans) [mg/L]	MIC (Nakaseomyces glabratus) [mg/L]	also measured
CCOCCCNc1c(N2CCN(S(=O)(=O)Cc3ccccc3)CC2)cnn(-c2ccccc2)c1=O	4.5	> 50	0.78 (≈ 1.52 µM)	
O=c1c(OC2CCCCC2)c(N2CCN(S(=O)(=O)Cc3ccccc3)CC2)cnn1-c1ccccc1	1.04	0.78 (≈ 1.53 µM)	0.05 (≈ 0.0983 µM)	
CC(C)S(=O)(=O)N1CCN(c2cnn(-c3cc(F)cc(Cl)c3)c(=O)c2OC2CCCC2)CC1	0.501	6.3 (≈ 12.6 µM)	0.06 (≈ 0.12 µM)	AUC(0-t) at 6 h [7]: 0.49 µg·h/mL
CC(C)S(=O)(=O)N1CCN(c2cnn(-c3ccccc3)c(=O)c2OC2CCCC2)CC1	3.81		0.2 (≈ 0.448 µM)	MIC50 (Candida albicans): 25 mg/L (≈ 56 µM); AUC(0-t) at 6 h [7]: 1.6 µg·h/mL
CC(C)S(=O)(=O)N1CCN(c2cnn(-c3cccnc3)c(=O)c2OC2CCCC2)CC1	13.6	> 50	1.6 (≈ 3.57 µM)	
O=c1c(OC2CCCC2)c(N2CCN(S(=O)(=O)Cc3ccccc3)CC2)cnn1-c1ccccc1	0.364	0.26 (≈ 0.526 µM)	0.03 (≈ 0.0607 µM)	
CCCCCCCOc1c(N2CCN(S(=O)(=O)Cc3ccccc3)CC2)cnn(-c2ccccc2)c1=O	0.229	0.78 (≈ 1.49 µM)	< 0.1	
CC(C)S(=O)(=O)N1CCN(c2cnn(-c3cccc(Cl)c3)c(=O)c2OC2CCCC2)CC1	1.08	3.1 (≈ 6.44 µM)	0.1 (≈ 0.208 µM)	AUC(0-t) at 6 h [7]: 0.49 µg·h/mL
CC1CN(S(=O)(=O)Cc2ccccc2)CCN1c1cnn(-c2ccccc2)c(=O)c1OC1CCCCC1 (stereo not drawn)	4.21	6.3 (≈ 12.1 µM)	0.39 (≈ 0.746 µM)	
CC(C)S(=O)(=O)N1CCN(c2cnn(-c3cccc(F)c3)c(=O)c2OC2CCC(F)C2)CC1 (racemic)	0.87	16.7 (≈ 34.6 µM)	0.13 (≈ 0.269 µM)	minimal effective concentration (Aspergillus fumigatus): 4.2 µg/mL; AUC(0-t) at 6 h [7]: 0.3 µg·h/mL
CCCCCCCSc1c(N2CCN(S(=O)(=O)Cc3ccccc3)CC2)cnn(-c2ccccc2)c1=O	2.03		0.78 (≈ 1.44 µM)	MIC50 (Candida albicans): 3.1 mg/L (≈ 5.73 µM)
O=c1c(N2CCOCC2)c(N2CCN(S(=O)(=O)Cc3ccccc3)CC2)cnn1-c1ccccc1	9.28	> 50	0.39 (≈ 0.787 µM)	
CCOCCOc1c(N2CCN(S(=O)(=O)Cc3ccccc3)CC2)cnn(-c2ccccc2)c1=O	1.81	3.1 (≈ 6.22 µM)	0.1 (≈ 0.201 µM)	
CCCCCCCS(=O)(=O)c1c(N2CCN(S(=O)(=O)Cc3ccccc3)CC2)cnn(-c2ccccc2)c1=O	> 17.5	> 50	1.6 (≈ 2.79 µM)	
CC(C)S(=O)(=O)N1CCN(c2cnn(-c3nccs3)c(=O)c2OC2CCCC2)CC1	> 22	> 20	8.4 (≈ 18.5 µM)	
CC(C)S(=O)(=O)N1CCN(c2cnn(-c3cccc(O)c3)c(=O)c2OC2CCCC2)CC1	1.95	> 20	2.5 (≈ 5.4 µM)	
CCCCCCC[S+]([O-])c1c(N2CCN(S(=O)(=O)Cc3ccccc3)CC2)cnn(-c2ccccc2)c1=O (stereo not drawn)	5.39	25 (≈ 44.9 µM)	0.59 (≈ 1.06 µM)	
